Experimental data published in US20240207263A1, “SELECTIVE MODULATORS OF ATAXIA TELA[…] (ATM) KINASE AND USES THEREOF” (priority 2021, published 2024).

Molecular target: ATM (Homo sapiens (Human), UniProt Q13315)
Experiment: biochemical
Assay type: biochemical
Conditions: not given
From the text: Assay a): ATM Biochemical Potency
Data was collected by Caliper.

ATM, sequence (Q13315 whole entry, looked up): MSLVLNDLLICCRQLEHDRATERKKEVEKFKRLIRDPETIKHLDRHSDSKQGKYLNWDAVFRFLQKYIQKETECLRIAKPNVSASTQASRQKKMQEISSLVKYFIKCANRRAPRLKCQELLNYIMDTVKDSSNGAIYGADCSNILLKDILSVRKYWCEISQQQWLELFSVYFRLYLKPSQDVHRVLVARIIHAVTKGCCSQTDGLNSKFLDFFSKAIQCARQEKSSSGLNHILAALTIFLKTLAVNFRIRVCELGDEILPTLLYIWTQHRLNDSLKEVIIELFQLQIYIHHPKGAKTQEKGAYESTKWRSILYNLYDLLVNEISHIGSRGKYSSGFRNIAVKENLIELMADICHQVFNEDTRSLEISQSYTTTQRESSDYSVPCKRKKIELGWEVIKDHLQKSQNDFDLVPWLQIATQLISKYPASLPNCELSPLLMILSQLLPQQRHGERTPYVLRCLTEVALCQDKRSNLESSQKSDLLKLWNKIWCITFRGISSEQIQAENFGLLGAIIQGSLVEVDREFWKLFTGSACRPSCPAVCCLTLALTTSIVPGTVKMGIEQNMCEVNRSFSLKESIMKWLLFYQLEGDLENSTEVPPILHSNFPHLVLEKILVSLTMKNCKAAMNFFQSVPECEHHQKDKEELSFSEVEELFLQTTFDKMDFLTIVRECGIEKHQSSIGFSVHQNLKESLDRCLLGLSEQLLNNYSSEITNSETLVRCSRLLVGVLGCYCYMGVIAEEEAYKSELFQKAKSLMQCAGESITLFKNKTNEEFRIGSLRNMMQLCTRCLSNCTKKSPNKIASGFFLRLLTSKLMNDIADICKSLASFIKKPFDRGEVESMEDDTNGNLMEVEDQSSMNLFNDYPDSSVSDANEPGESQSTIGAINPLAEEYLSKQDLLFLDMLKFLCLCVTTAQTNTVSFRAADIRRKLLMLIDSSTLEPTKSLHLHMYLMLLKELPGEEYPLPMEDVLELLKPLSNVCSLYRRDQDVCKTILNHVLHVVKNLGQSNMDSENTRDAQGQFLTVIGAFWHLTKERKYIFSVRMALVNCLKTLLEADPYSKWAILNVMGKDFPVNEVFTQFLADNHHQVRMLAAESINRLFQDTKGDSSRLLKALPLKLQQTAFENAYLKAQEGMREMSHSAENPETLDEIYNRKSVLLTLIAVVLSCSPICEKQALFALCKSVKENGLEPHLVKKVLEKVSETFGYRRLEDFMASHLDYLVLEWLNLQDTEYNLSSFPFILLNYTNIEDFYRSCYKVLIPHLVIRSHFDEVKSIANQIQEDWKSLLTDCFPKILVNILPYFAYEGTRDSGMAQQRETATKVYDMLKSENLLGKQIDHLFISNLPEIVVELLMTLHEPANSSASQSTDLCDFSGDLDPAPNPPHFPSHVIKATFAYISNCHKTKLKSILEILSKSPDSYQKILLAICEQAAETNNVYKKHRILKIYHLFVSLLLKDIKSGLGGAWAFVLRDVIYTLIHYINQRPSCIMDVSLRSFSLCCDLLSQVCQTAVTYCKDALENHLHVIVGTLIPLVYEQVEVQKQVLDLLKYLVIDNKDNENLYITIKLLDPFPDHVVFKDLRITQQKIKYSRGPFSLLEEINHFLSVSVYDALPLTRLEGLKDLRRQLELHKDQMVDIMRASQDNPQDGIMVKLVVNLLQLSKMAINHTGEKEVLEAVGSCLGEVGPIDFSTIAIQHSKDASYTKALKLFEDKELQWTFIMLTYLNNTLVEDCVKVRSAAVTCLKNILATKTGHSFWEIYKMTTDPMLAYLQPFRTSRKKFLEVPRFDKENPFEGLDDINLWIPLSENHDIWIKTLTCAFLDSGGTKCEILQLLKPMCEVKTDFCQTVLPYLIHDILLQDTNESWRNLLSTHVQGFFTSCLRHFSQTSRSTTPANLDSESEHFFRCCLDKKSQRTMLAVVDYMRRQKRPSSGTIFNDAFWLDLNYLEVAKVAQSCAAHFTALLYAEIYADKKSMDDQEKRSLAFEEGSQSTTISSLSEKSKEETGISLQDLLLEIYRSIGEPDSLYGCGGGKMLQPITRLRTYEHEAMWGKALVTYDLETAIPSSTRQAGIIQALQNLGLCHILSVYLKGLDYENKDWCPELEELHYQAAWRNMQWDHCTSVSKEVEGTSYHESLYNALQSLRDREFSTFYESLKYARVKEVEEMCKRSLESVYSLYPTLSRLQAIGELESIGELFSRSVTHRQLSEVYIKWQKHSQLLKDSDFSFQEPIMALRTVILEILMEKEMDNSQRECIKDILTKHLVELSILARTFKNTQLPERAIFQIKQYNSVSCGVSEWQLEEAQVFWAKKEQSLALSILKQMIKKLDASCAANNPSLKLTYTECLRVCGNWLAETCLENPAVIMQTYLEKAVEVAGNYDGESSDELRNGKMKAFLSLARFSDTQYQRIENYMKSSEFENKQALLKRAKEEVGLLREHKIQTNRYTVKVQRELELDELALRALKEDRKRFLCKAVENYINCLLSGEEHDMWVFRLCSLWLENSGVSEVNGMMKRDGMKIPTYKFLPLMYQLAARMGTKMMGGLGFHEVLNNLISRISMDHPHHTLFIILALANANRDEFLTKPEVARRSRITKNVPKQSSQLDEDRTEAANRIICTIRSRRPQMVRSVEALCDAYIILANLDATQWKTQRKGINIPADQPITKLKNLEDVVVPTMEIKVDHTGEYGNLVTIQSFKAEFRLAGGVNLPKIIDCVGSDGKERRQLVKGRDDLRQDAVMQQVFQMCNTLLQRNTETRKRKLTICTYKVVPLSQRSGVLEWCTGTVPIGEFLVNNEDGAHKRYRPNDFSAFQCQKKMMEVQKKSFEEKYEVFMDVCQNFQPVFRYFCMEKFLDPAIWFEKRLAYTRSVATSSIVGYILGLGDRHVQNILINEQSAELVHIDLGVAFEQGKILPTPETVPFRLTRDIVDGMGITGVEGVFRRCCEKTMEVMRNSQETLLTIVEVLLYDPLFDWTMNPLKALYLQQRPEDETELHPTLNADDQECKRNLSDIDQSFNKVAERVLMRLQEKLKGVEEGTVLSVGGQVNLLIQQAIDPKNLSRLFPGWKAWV

`CO[C@H]1C[C@H](n2c(=O)n(C)c3nnc4ccc(-c5ccc(COCCN6CCC7(CC7)C6)nc5)cc4c32)C1` [Example 159, 8-(6-((2-(5-azaspiro[2.4]heptan-5-yl)ethoxy)methyl)pyridin-3-yl)-1-(trans-3-methoxycyclobutyl)-3-methyl-1H-imidazo[4,5-c]cinnolin-2(3H)-one] was tested, and the IC50 was 20.6 nM.

Same assay, conditions: read-out: ATM IC50

Going from `C[C@@H](OCCN1CCC(C)(C#N)C1)c1ccc(-c2ccc3nnc4c(c3c2)n(C2CCOCC2)c(=O)n4C)cn1` (stereo partly drawn) [Example 130, 3-methyl-1-(2-((R)-1-(5-(3-methyl-2-oxo-1-(tetrahydro-2H-pyran-4-yl)-2,3-dihydro-1H-imidazo[4.5-c]cinnolin-8-yl)pyridin-2-yl)ethoxy)ethyl) pyrrolidine-3-carbonitrile] to `CO[C@H]1C[C@H](n2c(=O)n(C)c3nnc4ccc(-c5ccc([C@@H](C)OCCN6CCC7(CC7)C6)nc5)cc4c32)C1` [Example 161, 8-(6-((R)-1-(2-(5-azaspiro[2.4]heptan-5-yl)ethoxy)ethyl)pyridin-3-yl)-1-(trans-3-methoxycyclobutyl)-3-methyl-1H-imidazo[4,5-c]cinnolin-2(3H)-one], the IC50 falls from 26 nM to 3.4 nM (7.6-fold).

Going from `CC(C)n1c(=O)n(C)c2nnc3cc(F)c(-c4ccc(COCCN5CCC(C)(C)C5)nc4)cc3c21` [Example 132, 8-(6-((2-(3,3-dimethylpyrrolidin-1-yl)ethoxy)methyl)pyridin-3-yl)-7-fluoro-1-isopropyl-3-methyl-1H-imidazo[4,5-c]cinnolin-2(3H)-one] to `CC(C)n1c(=O)n(C)c2nnc3cc(F)c(-c4ccc([C@@H](C)OCCN5CCC(C)(C)CC5)nc4)cc3c21` [Example 139, (R)-8-(6-(1-(2-(4,4-dimethylpiperidin-1-yl)ethoxy)ethyl)pyridin-3-yl)-7-fluoro-1-isopropyl-3-methyl-1H-imidazo[4,5-c]cinnolin-2(3H)-one], the IC50 falls from 22 nM to 2.8 nM (7.9-fold).

`CC(C)n1c(=O)n(C)c2nnc3cc(F)c(-c4ccc([C@@H](C)OCCN5CCC(F)CC5)nc4)cc3c21` [Example 136, (R)-7-fluoro-8-(6-(1-(2-(4-fluoropiperidin-1-yl)ethoxy)ethyl)pyridin-3-yl)-1-isopropyl-3-methyl-1,3-dihydro-2H-imidazo[4,5-c]cinnolin-2-one] and `CO[C@H]1CCN(CCO[C@H](C)c2ccc(-c3cc4c(cc3F)nnc3c4n(C(C)C)c(=O)n3C)cn2)C1` [Example 138, 7-fluoro-1-isopropyl-8-(6-((R)-1-(2-((S)-3-methoxypyrrolidin-1-yl)ethoxy)ethyl)pyridin-3-yl)-3-methyl-1H-imidazo[4,5-c]cinnolin-2(3H)-one] are within 1.5-fold of each other in IC50: 10 nM for the first, 14 nM for the second.

Going from `CC(C)n1c(=O)n(C)c2nnc3cc(F)c(-c4ccc([C@@H](C)OCCN5CCC(OC(F)(F)F)C5)nc4)cc3c21` (stereo partly drawn) [Example 141, 7-fluoro-1-isopropyl-3-methyl-8-(6-((1R)-1-(2-(3-(trifluoromethoxy)pyrrolidin-1-yl)ethoxy)ethyl)pyridin-3-yl)-1H-imidazo[4,5-c]cinnolin-2(3H)-one] to `CC(C)n1c(=O)n(C)c2nnc3cc(F)c(-c4ccc([C@@H](C)OCCN5CC6CC6C5)nc4)cc3c21` (stereo partly drawn) [Example 143, 8-(6-((1R)-1-(2-(3-azabicyclo[3.1.0]hexan-3-yl)ethoxy)ethyl)pyridin-3-yl)-7-fluoro-1-isopropyl-3-methyl-1H-imidazo[4,5-c]cinnolin-2(3H)-one], the IC50 rises from 6.3 nM to 11 nM (1.7-fold).

First: CC(C)n1c(=O)n(C)c2nnc3cc(F)c(-c4ccc([C@@H](C)OCCN5CCC(C)(C#N)C5)nc4)cc3c21 (stereo partly drawn) [Example 147, 1-(2-((R)-1-(5-(7-fluoro-1-isopropyl-3-methyl-2-oxo-2,3-dihydro-1H-imidazo[4,5-c]cinnolin-8-yl)pyridin-2-yl)ethoxy)ethyl)-3-methylpyrrolidine-3-carbonitrile]
Second: C[C@@H](OCCN1CCC(C)(C)CC1)c1ccc(-c2cc3c(cc2F)nnc2c3n(C3CCOCC3)c(=O)n2C)cn1 [Example 149, (R)-8-(6-(1-(2-(4,4-dimethylpiperidin-1-yl)ethoxy)ethyl)pyridin-3-yl)-7-fluoro-3-methyl-1-(tetrahydro-2H-pyran-4-yl)-1H-imidazo[4,5-c]cinnolin-2(3H)-one]
The IC50 of the first is 1.5-fold higher: 23 nM for the first, 15 nM for the second.

First: C[C@@H](OCCN1CCC2(CC1)CC2)c1ccc(-c2cc3c(cc2F)nnc2c3n(C3CCOCC3)c(=O)n2C)cn1 [Example 154, (R)-8-(6-(1-(2-(6-azaspiro[2.5]octan-6-yl)ethoxy)ethyl)pyridin-3-yl)-7-fluoro-3-methyl-1-(tetrahydro-2H-pyran-4-yl)-1H-imidazo[4,5-c]cinnolin-2(3H)-one]
Second: C[C@@H](OCCN1CCC2(CCC2)CC1)c1ccc(-c2cc3c(cc2F)nnc2c3n(C3CCOCC3)c(=O)n2C)cn1 [Example 156, (R)-8-(6-(1-(2-(7-azaspiro[3.5]nonan-7-yl)ethoxy)ethyl)pyridin-3-yl)-7-fluoro-3-methyl-1-(tetrahydro-2H-pyran-4-yl)-1H-imidazo[4,5-c]cinnolin-2(3H)-one]
The IC50 of the first is 1.7-fold lower: 3.6 nM for the first, 6 nM for the second.

`C[C@@H](OCCN1CC[C@@H](OC(F)F)C1)c1ccc(-c2cc3c(cc2F)nnc2c3n(C3CCOCC3)c(=O)n2C)cn1` [Example 155, 8-(6-((R)-1-(2-((R)-3-(difluoromethoxy)pyrrolidin-1-yl)ethoxy)ethyl)pyridin-3-yl)-7-fluoro-3-methyl-1-(tetrahydro-2H-pyran-4-yl)-1H-imidazo[4,5-c]cinnolin-2(3H)-one] and `CO[C@@H]1CCN(CCO[C@H](C)c2ccc(-c3ccc4nnc5c(c4c3)n([C@H]3C[C@H](OC)C3)c(=O)n5C)cn2)C1` [Example 163, 1-(trans-3-methoxycyclobutyl)-8-(6-((R)-1-(2-((R)-3-methoxypyrrolidin-1-yl)ethoxy)ethyl)pyridin-3-yl)-3-methyl-1H-imidazo[4,5-c]cinnolin-2(3H)-one] are within 1.5-fold of each other in IC50: 11 nM for the first, 7.9 nM for the second.

First: CO[C@H]1C[C@H](n2c(=O)n(C)c3nnc4ccc(-c5ccc([C@@H](C)OCCN6CCC7(CC6)CC7)nc5)cc4c32)C1 [Example 164, 8-(6-((R)-1-(2-(6-azaspiro[2.5]octan-6-yl)ethoxy)ethyl)pyridin-3-yl)-1-(trans-3-methoxycyclobutyl)-3-methyl-1H-imidazo[4,5-c]cinnolin-2(3H)-one]
Second: CO[C@H]1C[C@H](n2c(=O)n(C)c3nnc4ccc(-c5ccc(COCCN6CCCC6)nc5)cc4c32)C1 [Example 166, 1-(trans-3-methoxycyclobutyl)-3-methyl-8-(6-((2-(pyrrolidin-1-yl)ethoxy)methyl)pyridin-3-yl)-1H-imidazo[4,5-c]cinnolin-2(3H)-one]
The IC50 of the first is 26-fold lower: 2.2 nM for the first, 58 nM for the second.

First: CO[C@H]1C[C@H](n2c(=O)n(C)c3nnc4ccc(-c5ccc(COCCN(C)C)nc5)cc4c32)C1 [Example 165, 8-(6-((2-(dimethylamino)ethoxy)methyl)pyridin-3-yl)-1-(trans-3-methoxycyclobutyl)-3-methyl-1H-imidazo[4,5-c]cinnolin-2(3H)-one]
Second: CO[C@H]1C[C@H](n2c(=O)n(C)c3nnc4ccc(-c5ccc(COCCN6CCC(F)CC6)nc5)cc4c32)C1 [Example 168, 8-(6-((2-(4-fluoropiperidin-1-yl)ethoxy)methyl)pyridin-3-yl)-1-(trans-3-methoxycyclobutyl)-3-methyl-1H-imidazo[4,5-c]cinnolin-2(3H)-one]
The IC50 of the first is 2.1-fold higher: 101 nM for the first, 48 nM for the second. The second is the more potent here.
